Source: ChEMBL document CHEMBL1201862, “PubChem BioAssay data set” (2004)
Activity calls are given as the source filed them.

Legend:
[1] = molecular target: Phosphomannomutase 2 (Homo sapiens, UniProt O15305); assay: Counter screen SAR assay for PMM2 inhibitors via a fluorescence intensity assay. [Related pubchem assays (depositor defined):AID1545, AID1574]
[2] = molecular target: T1, DNA dC->dU-editing enzyme APOBEC-3A (Homo sapiens, UniProt P31941); assay: SAR analysis of small molecule inhibitors of APOBEC3A DNA Deaminase via a fluorescence-based single-stranded DNA deaminase assay.; type: functional; settings: read-out: IC50_Mean
T1 sequence (P31941 whole entry): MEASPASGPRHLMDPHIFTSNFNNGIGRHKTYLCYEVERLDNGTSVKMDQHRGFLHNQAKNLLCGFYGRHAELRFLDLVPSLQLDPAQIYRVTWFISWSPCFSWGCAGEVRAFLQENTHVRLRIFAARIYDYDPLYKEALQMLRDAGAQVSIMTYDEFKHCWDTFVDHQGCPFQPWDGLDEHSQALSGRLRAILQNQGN

[3] = molecular target: FAD-linked sulfhydryl oxidase ALR (Homo sapiens, UniProt P55789); assay: inhibitors of human ALR sulfhydryl oxidase, dose response, biochemical, H2O2 detection, luminescence, cherry-pick (AID 493248)
[4] = molecular target: T2, Leucine aminopeptidase (Plasmodium falciparum 3D7, UniProt Q8IL11); assay: P. falciparum M17LAP inhibitors, primary screen, biochemical, fluorogenic H-Leu-NHMec substrate, 1536-well (AID 1619); type: functional
T2 sequence (Q8IL11 whole entry): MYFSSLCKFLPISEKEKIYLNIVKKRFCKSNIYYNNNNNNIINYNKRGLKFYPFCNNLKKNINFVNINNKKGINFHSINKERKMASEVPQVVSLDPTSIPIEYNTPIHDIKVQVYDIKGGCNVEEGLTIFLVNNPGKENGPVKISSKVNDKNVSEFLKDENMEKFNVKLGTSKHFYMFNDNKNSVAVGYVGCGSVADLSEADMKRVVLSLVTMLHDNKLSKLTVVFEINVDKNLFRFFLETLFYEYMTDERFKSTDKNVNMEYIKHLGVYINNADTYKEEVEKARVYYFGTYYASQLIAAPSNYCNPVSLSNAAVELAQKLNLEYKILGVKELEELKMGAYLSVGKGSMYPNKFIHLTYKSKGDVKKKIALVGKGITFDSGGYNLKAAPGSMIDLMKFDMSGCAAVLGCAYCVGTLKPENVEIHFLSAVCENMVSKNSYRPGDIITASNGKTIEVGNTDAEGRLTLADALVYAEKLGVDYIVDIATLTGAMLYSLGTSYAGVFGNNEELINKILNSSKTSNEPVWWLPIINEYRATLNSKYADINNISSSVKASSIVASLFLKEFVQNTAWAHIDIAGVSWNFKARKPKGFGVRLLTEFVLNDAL

[5] = molecular target: T3, DNA dC->dU-editing enzyme APOBEC-3G (Homo sapiens, UniProt Q9HC16); assay: SAR analysis of small molecule inhibitors of APOBEC3G DNA Deaminase via a fluorescence-based single-stranded DNA deaminase assay - Set 2.; type: functional; settings: read-out: IC50_Mean
T3 sequence (Q9HC16 whole entry): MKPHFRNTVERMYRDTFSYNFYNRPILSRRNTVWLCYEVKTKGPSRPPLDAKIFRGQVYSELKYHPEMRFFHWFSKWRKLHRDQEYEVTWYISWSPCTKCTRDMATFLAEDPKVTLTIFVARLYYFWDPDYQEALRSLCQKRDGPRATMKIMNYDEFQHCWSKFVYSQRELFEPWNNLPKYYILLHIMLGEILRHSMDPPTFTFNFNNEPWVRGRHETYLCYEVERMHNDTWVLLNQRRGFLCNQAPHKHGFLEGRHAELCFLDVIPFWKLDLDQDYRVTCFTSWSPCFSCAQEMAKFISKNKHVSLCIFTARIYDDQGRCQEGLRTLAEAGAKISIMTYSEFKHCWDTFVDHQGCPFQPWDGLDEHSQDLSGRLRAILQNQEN

[6] = molecular target: T1, DNA dC->dU-editing enzyme APOBEC-3A; assay: SAR analysis of small molecule inhibitors of APOBEC3A DNA Deaminase via a fluorescence-based single-stranded DNA deaminase assay - Set 2.; type: functional; settings: read-out: IC50_Mean
[7] = molecular target: Luciferin 4-monooxygenase (Photinus pyralis, UniProt P08659); assay: firefly luciferase enzyme inhibitors, dose response, biochemical, luminescence (AID 1891)
[8] = molecular target: T3, DNA dC->dU-editing enzyme APOBEC-3G; assay: Dose Response confirmation of small molecule APOBEC3G DNA Deaminase Inhibitors via a fluorescence-based single-stranded DNA deaminase assay. [Related pubchem assays (depositor defined):AID493012, AID493028]; type: functional
[9] = molecular target: T1, DNA dC->dU-editing enzyme APOBEC-3A; assay: APOBEC3A DNA deaminase inhibitors, dose response, biochemical (AID 504722); type: functional
[10] = molecular target: T3, DNA dC->dU-editing enzyme APOBEC-3G; assay: APOBEC3G deaminase inhibitors, SAR follow-up, biochemical, fluorescence, single-stranded DNA substrate (AID 602136); type: functional; settings: read-out: IC50_Mean
[11] = molecular target: T4, Mannose-6-phosphate isomerase (Homo sapiens, UniProt P34949); assay: PMI enzyme inhibitors, confirmation, biochemical, fluorescence intensity (AID 1535)
T4 sequence (P34949 whole entry): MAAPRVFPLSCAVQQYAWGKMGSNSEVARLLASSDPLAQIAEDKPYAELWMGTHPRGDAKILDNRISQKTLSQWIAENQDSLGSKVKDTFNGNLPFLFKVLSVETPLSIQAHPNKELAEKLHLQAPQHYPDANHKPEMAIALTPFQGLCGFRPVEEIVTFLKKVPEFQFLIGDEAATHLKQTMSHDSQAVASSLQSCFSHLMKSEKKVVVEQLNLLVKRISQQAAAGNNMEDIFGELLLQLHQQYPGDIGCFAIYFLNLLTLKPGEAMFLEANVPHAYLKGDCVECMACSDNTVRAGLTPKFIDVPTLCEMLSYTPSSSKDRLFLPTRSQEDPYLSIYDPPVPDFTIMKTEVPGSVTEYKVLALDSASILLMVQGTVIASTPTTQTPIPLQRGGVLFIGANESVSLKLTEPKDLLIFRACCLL

[12] = molecular target: Serine/threonine-protein kinase PLK3 (Homo sapiens, UniProt Q9H4B4); type: functional
[13] = molecular target: Ribosomal protein S6 kinase beta-1 (Homo sapiens, UniProt P23443); type: functional;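 further: measured as one member of a kinome-wide profiling panel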
[14] = molecular target: Dual specificity tyrosine-phosphorylation-regulated kinase 1A (Homo sapiens, UniProt Q13627); type: functional;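 further: measured against DYRK1A as one member of a broad kinome profiling panel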
[15] = molecular target: Serine/threonine-protein kinase Nek2 (Homo sapiens, UniProt P51955); type: functional
Serine/threonine-protein kinase Nek2, sequence (P51955 whole entry): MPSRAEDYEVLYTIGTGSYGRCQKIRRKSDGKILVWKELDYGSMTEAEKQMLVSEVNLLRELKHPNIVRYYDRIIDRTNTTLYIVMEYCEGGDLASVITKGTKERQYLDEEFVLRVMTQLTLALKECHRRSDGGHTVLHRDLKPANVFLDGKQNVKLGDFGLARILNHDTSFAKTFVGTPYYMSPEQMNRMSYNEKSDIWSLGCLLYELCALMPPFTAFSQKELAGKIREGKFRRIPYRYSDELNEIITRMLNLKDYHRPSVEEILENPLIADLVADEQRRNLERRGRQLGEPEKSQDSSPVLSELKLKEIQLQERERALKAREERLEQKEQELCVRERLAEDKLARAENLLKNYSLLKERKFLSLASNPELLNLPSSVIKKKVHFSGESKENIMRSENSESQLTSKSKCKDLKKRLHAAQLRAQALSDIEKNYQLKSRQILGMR

[16] = molecular target: Vascular endothelial growth factor receptor 3 (Homo sapiens, UniProt P35916); type: functional;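 further: value from a kinome-wide profiling panel, with FLT4 as the panel member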
[17] = molecular target: Serine/threonine-protein kinase PLK1 (Homo sapiens, UniProt P53350); type: functional;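 further: PLK1 measured as one member of a kinome-wide profiling panel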
[18] = molecular target: Dual specificity tyrosine-phosphorylation-regulated kinase 1B (Homo sapiens, UniProt Q9Y463); assay: Navigating the Kinome. Panel member name: DYRK1B; type: functional
Dual specificity tyrosine-phosphorylation-regulated kinase 1B, sequence (Q9Y463 whole entry): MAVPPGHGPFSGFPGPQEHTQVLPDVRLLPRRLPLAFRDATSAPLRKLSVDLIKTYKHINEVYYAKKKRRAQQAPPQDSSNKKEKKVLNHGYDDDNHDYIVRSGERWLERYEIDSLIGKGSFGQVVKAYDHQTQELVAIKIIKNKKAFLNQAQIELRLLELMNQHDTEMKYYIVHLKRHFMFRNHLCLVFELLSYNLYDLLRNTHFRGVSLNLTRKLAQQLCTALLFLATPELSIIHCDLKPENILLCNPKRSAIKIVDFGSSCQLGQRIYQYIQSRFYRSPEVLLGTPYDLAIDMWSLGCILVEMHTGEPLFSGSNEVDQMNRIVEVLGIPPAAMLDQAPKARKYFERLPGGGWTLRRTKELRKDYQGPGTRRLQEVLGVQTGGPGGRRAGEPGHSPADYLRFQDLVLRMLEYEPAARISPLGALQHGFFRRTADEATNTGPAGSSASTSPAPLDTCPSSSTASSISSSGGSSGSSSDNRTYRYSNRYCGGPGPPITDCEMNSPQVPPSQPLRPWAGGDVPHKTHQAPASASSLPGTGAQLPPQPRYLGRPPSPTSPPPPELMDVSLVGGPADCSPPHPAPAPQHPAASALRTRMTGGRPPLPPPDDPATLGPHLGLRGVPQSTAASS

[19] = molecular target: Tyrosine-protein kinase BTK (Homo sapiens, UniProt Q06187); type: functional
[20] = molecular target: Dual specificity protein kinase CLK4 (Homo sapiens, UniProt Q9HAZ1); type: functional
Dual specificity protein kinase CLK4, sequence (Q9HAZ1 whole entry): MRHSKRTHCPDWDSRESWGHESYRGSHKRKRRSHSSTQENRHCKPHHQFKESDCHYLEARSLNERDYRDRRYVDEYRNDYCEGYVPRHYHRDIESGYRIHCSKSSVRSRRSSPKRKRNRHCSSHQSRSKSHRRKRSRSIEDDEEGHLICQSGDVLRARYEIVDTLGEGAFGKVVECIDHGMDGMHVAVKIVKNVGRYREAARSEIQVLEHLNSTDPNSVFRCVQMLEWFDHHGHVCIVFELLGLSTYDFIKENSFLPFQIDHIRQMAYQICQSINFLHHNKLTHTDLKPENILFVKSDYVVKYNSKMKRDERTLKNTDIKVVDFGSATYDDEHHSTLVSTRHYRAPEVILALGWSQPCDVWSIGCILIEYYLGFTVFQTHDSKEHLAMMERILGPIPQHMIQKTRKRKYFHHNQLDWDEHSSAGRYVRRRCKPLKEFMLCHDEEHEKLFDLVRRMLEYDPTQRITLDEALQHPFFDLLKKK

[21] = molecular target: Aurora kinase B (Homo sapiens, UniProt Q96GD4); type: functional
[22] = molecular target: Cyclin-dependent kinase 7 (Homo sapiens, UniProt P50613); type: functional;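 further: value comes from a kinome-wide kinase profiling panel in which CDK7 is one member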
[23] = molecular target: Casein kinase I isoform alpha (Homo sapiens, UniProt P48729); type: functional
Casein kinase I isoform alpha, sequence (P48729 whole entry, canonical isoform): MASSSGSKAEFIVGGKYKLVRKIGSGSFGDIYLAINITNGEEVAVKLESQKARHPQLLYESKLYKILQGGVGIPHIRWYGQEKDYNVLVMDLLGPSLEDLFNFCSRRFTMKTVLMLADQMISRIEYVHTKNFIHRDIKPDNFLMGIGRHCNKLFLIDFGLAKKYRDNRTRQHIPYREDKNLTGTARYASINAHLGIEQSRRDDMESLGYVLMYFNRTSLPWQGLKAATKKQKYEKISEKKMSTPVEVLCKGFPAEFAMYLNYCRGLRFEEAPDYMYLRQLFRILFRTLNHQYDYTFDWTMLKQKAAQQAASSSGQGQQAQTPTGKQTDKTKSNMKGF

[24] = molecular target: Platelet-derived growth factor receptor alpha (Homo sapiens, UniProt P16234); assay: Navigating the Kinome. Panel member name: PDGFRA; type: functional
[25] = molecular target: Mitogen-activated protein kinase kinase kinase kinase 2 (Homo sapiens, UniProt Q12851); type: functional;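 further: measured as one member of a kinome-wide kinase panel, with MAP4K2 as the panel entry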
Mitogen-activated protein kinase kinase kinase kinase 2, sequence (Q12851 whole entry): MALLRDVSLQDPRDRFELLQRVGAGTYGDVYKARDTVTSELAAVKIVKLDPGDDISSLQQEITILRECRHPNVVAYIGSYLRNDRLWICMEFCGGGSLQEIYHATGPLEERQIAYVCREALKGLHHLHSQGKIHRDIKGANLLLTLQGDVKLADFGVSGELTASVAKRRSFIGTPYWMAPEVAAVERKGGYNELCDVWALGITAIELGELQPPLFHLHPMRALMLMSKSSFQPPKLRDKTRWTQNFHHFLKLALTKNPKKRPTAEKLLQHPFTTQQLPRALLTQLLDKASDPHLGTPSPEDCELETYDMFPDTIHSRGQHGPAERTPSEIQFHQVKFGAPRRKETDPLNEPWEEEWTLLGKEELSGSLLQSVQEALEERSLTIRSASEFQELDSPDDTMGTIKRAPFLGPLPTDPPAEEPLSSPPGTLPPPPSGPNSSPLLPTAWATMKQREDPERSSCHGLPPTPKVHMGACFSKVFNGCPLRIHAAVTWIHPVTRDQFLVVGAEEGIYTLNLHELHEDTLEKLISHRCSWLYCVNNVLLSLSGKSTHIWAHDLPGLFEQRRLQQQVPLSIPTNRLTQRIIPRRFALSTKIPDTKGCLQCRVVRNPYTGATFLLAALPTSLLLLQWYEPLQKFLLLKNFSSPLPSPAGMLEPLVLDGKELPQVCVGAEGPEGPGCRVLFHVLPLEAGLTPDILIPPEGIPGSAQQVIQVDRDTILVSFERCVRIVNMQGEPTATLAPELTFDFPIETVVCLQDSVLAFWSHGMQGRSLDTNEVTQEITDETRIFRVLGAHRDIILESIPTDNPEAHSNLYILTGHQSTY

[26] = molecular target: Tyrosine-protein kinase ABL1 (Homo sapiens, UniProt P00519); type: functional
[27] = molecular target: Mitogen-activated protein kinase kinase kinase kinase 4 (Homo sapiens, UniProt O95819); type: functional
Mitogen-activated protein kinase kinase kinase kinase 4, sequence (O95819 whole entry): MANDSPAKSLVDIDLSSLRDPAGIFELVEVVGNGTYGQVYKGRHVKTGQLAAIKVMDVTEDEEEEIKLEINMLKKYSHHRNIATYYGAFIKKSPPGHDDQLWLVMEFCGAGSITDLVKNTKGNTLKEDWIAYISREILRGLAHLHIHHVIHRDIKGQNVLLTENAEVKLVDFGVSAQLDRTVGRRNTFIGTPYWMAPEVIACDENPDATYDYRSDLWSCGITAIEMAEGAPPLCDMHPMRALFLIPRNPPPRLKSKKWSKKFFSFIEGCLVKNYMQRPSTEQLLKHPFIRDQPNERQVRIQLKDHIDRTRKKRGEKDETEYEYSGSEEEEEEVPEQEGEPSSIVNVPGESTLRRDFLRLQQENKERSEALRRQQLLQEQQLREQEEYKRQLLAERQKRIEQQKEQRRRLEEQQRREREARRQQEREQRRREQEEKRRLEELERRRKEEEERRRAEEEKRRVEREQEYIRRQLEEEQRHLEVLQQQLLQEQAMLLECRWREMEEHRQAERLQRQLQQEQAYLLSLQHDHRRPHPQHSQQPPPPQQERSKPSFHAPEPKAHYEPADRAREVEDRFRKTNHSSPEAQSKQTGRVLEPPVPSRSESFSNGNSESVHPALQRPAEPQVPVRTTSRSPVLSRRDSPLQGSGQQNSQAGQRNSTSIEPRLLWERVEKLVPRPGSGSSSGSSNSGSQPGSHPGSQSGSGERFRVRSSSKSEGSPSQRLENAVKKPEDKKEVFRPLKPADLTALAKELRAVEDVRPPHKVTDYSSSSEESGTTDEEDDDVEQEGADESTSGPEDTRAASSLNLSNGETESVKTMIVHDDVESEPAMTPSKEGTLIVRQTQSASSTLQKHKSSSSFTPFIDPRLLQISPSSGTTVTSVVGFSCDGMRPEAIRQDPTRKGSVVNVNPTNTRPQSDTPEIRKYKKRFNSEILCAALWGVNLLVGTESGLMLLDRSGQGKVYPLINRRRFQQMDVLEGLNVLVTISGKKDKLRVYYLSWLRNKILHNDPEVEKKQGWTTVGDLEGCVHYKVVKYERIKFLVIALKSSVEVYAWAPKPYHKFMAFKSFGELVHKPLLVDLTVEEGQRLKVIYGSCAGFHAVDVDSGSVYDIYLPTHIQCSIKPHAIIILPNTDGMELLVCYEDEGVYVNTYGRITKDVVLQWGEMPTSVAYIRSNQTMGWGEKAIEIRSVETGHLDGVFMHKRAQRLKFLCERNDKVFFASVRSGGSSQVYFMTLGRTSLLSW

[28] = molecular target: Macrophage colony-stimulating factor 1 receptor (Homo sapiens, UniProt P07333); type: functional;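 further: value comes from the Navigating the Kinome screening panel, CSF1R member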
[29] = molecular target: Focal adhesion kinase 1 (Homo sapiens, UniProt Q05397); type: functional;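 further: measured as one member of a kinome panel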
[30] = molecular target: Mitogen-activated protein kinase 8 (Homo sapiens, UniProt P45983); type: functional;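 further: value comes from one member of a kinome-wide kinase profiling panel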
[31] = molecular target: Activin receptor type-1 (Homo sapiens, UniProt Q04771); assay: Navigating the Kinome. Panel member name: ACVR1; type: functional
[32] = molecular target: Tyrosine-protein kinase receptor TYRO3 (Homo sapiens, UniProt Q06418); type: functional;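 further: TYRO3 value obtained as one member of a kinome-wide profiling panel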
[33] = molecular target: Serine/threonine-protein kinase PAK 4 (Homo sapiens, UniProt O96013); type: functional;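 further: value obtained within a kinome profiling panel in which PAK4 was one of the panel members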
[34] = molecular target: Inhibitor of nuclear factor kappa-B kinase subunit epsilon (Homo sapiens, UniProt Q14164); assay: Navigating the Kinome. Panel member name: IKBKE; type: functional
[35] = molecular target: T5, Neuropeptides B/W receptor type 1 (Homo sapiens, UniProt P48145); assay: GPR7 antagonist potency, late-stage follow-up, cell-based, fluorescence, dose response, set 6 (AID 588583); type: functional
T5 sequence (P48145 whole entry): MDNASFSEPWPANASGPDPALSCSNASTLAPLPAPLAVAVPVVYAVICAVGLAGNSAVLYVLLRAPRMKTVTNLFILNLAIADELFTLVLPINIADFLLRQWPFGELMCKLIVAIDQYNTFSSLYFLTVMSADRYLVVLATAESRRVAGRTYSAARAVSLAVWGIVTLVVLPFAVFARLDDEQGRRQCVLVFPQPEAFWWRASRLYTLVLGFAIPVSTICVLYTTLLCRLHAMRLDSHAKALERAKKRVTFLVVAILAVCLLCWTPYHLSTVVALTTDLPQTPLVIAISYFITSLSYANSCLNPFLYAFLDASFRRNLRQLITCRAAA

[36] = molecular target: Melanin-concentrating hormone receptor 1 (Homo sapiens, UniProt Q99705); assay: Late-stage fluorescence-based counterscreen for antagonists of the G-protein coupled receptor 7 (GPR7): cell-based dose response assay to identify antagonists of the melanin-concentrating hormone receptor 1 (MCHR1) Set 6.; type: functional
[37] = THP-1 cell cytotoxicity, dose response, cytotoxicity control, set 3 (AID 504852); type: functional; settings: Mycobacterium tuberculosis
[38] = A Cell Based Secondary Assay to Explore Cytotoxicity in THP-1 Cells of Compounds that Modulate Mycobacterium tuberculosis in Media Containing Glycerol versus Media without Glycerol (2).; type: functional
[39] = microbe, parasite or virus in culture; type: functional; settings: Mycobacterium tuberculosis
[40] = inhibitors of intracellular T. cruzi replication, confirmation, NIH3T3 host cells, beta-gal luminescence (AID 2044); type: functional, cell-based;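 further: intracellular parasites grown in NIH/3T3 mouse fibroblasts as host cells; luminescent beta-galactosidase reporter signal from transgenic T. cruzi replicating inside host cells; inhibitors lower the luminescence signal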
[41] = THP-1 cell cytotoxicity, cytotoxicity control, set 4 (AID 504911); type: functional; settings: Mycobacterium tuberculosis
[42] = THP-1 cell cytotoxicity, dose response, cytotoxicity control for non-replicating M. tuberculosis project (AID 489025); type: functional
[43] = Vero E6 cell cytotoxicity, dose response, cytotoxicity control for non-replicating M. tuberculosis project, secondary assay (AID 492998); type: functional, VeroE6; settings: Vero C1008
[44] = A Cell Based Secondary Assay to Explore Cytotoxicity in HepG2 Cells of Compounds that Modulate Mycobacterium tuberculosis in Media Containing Glycerol versus Media without Glycerol (2).; type: functional
[45] = HepG2 cell cytotoxicity, cytotoxicity control, set 4 (AID 504910); type: functional; settings: Mycobacterium tuberculosis
[46] = cells; type: functional
[47] = cytotoxicity toward NIH3T3 fibroblasts, dose response, counter-screen, cell-based, ATP luminescence, mouse fibroblasts (AID 2010); type: functional;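 further: cells exposed to compound for about 90 hours before reading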
[48] = Vero cell cytotoxicity, cytotoxicity control for M. tuberculosis inhibitor project, purified and synthesized samples, set 3 (AID 504684); type: functional
[49] = Vero cell cytotoxicity, dose response, cytotoxicity control for M. tuberculosis growth inhibitor project, Vero cells, purified and synthesized compounds, set 4 (AID 504854); type: functional; settings: Mycobacterium tuberculosis
[50] = HepG2 cell cytotoxicity, dose response, cytotoxicity control, set 3 (AID 504853); type: functional; settings: Mycobacterium tuberculosis
[51] = Vero cell cytotoxicity, dose response, cytotoxicity control for M. tuberculosis growth inhibitor project, Vero cells, purified and synthesized compounds, set 5 (AID 504909); type: functional; settings: Mycobacterium tuberculosis
[52] = molecular target: Casein kinase I isoform delta (Homo sapiens, UniProt P48730); type: functional;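 further: measured as one member (CSNK1D) of a kinome panel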
Casein kinase I isoform delta, sequence (P48730 whole entry, canonical isoform): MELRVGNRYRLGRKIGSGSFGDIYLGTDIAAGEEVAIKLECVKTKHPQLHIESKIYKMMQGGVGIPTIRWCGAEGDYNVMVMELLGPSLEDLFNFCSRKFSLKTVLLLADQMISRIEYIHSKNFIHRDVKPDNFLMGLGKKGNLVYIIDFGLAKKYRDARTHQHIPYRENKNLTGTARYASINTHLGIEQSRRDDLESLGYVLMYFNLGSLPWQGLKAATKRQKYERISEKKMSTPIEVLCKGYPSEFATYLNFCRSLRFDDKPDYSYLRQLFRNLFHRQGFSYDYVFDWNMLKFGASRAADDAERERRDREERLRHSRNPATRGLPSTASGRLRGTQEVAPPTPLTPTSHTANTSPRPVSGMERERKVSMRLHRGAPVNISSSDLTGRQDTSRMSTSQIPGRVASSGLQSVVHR

[53] = molecular target: Serine/threonine-protein kinase D3 (Homo sapiens, UniProt O94806); type: functional;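 further: determined within a kinase panel screen, with PRKCN as the panel member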

COc1ccc(-c2nnc(S)[nH]2)cc1
IC50 [1]: > 100 µM (inactive)
IC50 [2]: > 99 µM (inactive)
AC50 [3]: 0.008 µM (active)
IC50 [4]: 39.5 µM (active)
IC50 [5]: 1.22 µM (active)
IC50 [6]: > 99 µM (inactive)
EC50 [7]: > 112 µM (not active)
IC50 [8]: 1.95 µM (active)
IC50 [9]: > 100 µM (inactive)
IC50 [10]: 1.19 µM (active)
IC50 [11]: 50.1 µM (active)

CCn1c(=C(C#N)C(=O)O)sc(=CNc2ccccc2)c1=O
Ki [12]: 5.01 µM (active)
Ki [13]: 6.31 µM (active)
Ki [14]: 1.58 µM (active)
Ki [15]: 5.01 µM (active)
Ki [16]: 1.58 µM (active)
Ki [17]: 1.58 µM (active)

Clc1cc2nnc(-c3ccccc3)n2cn1
Ki [18]: 79.4 µM (active)
Ki [19]: 50.1 µM (active)
Ki [20]: 63.1 µM (active)
Ki [21]: 25.1 µM (active)
Ki [22]: 20 µM (active)
Ki [23]: 39.8 µM (active)
Ki [24]: 15.8 µM (active)
Ki [25]: 12.6 µM (active)
Ki [26]: 63.1 µM (active)

Nc1nc2ncc(-c3ccccc3)cn2n1
Ki [18]: 31.6 µM (active)
Ki [27]: 50.1 µM (active)
Ki [28]: 100 µM (active)
Ki [20]: 15.8 µM (active)
Ki [29]: 100 µM (active)
Ki [30]: 50.1 µM (active)
Ki [31]: 39.8 µM (active)
Ki [23]: 25.1 µM (active)
Ki [25]: 79.4 µM (active)
Ki [32]: 50.1 µM (active)
Ki [14]: 50.1 µM (active)
Ki [33]: 25.1 µM (active)
Ki [34]: 63.1 µM (active)

CCc1cnn(Cc2cccc3ccccc23)c(=O)c1C(C#N)c1ccccc1 (centres undefined)
IC50 [35]: 15.2 µM (inactive)
IC50 [36]: 15.2 µM (inactive)

Cc1[nH]c2ccccc2c1C(=O)COC(=O)c1ccc([N+](=O)[O-])s1
CC50 [37]: 16.3 µM (active)
CC50 [38]: 25.1 µM (active)
CC50 [39]: 32.2 µM (active)
EC50 [40]: 1.75 µM (active)
CC50 [41]: 32.3 µM (active)
CC50 [42]: 29.6 µM (active)
CC50 [43]: > 20 µM (active)
CC50 [44]: 20.7 µM (active)
CC50 [45]: 30.3 µM (active)
IC50 [46]: 3.59 µM (active)
EC50 [47]: > 30 µM (not active)
CC50 [48]: 25.7 µM (active)
CC50 [49]: 29 µM (active)
CC50 [50]: 21 µM (active)
CC50 [51]: > 63.9 µM (active)

CC(C)(O)c1nnc2ccc(-c3c(-c4ccc(F)cc4F)nc4occn34)nn12
Ki [27]: 3.16 µM (active)
Ki [52]: 2.51 µM (active)
Ki [53]: 5.01 µM (active)
